Source: PubChem BioAssay (NCI)
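GI50 = concentration required for 50% inhibition of growth. At the TGI there is no net growth.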

Experiments:
Experiment in all cases: NCI anticancer screen, dose series, 384-well format
[1] = test system: NCI/ADR-RES ovarian
[2] = test system: ACHN renal
[3] = test system: SF-268 CNS
[4] = test system: OVCAR-3 ovarian
[5] = test system: SF-295 CNS
[6] = test system: K-562 leukemia
[7] = test system: EKVX NSCLC
[8] = test system: HS 578T breast
[9] = test system: HOP-62 NSCLC
[10] = test system: NCI-H23 lung
[11] = test system: HT29 colon
[12] = test system: A549 NSCLC
[13] = test system: OVCAR-4 ovarian
[14] = test system: CCRF-CEM leukemia
[15] = test system: OVCAR-5 ovarian
[16] = test system: SK-MEL-2 melanoma
[17] = test system: MDA-MB-468 breast
[18] = test system: A498 renal
[19] = test system: HCT-15 colon
[20] = test system: HCC-2998 colon
[21] = test system: MDA-MB-435 melanoma
[22] = test system: DU-145 prostate
[23] = test system: SF-539 CNS
[24] = test system: SW-620 colon

## CCNC(=O)c1cc2c(-c3cc(C(C)(C)O)ccc3Oc3c(C)cc(F)cc3C)cn(C)c(=O)c2[nH]1
[1]
  GI50: 12300 nM
  TGI: 26100 nM
[2]
  GI50: 3230 nM
  TGI: 15100 nM
[3]
  GI50: 2290 nM
  TGI: 11400 nM
[4]
  GI50: 602 nM
  TGI: 2460 nM
[5]
  GI50: 3000 nM
  TGI: 11100 nM
[6]
  GI50: 879 nM
  TGI: 10700 nM
[7]
  GI50: 3230 nM
  TGI: 13900 nM
[8]
  GI50: 125 nM
  TGI: 2020 nM
[9]
  GI50: 1030 nM
  TGI: 4950 nM
[10]
  GI50: 725 nM
  TGI: 2810 nM
[11]
  GI50: 1240 nM
  TGI: 13400 nM
[12]
  GI50: 1510 nM
  TGI: 12000 nM
[13]
  GI50: 201 nM
  TGI: 870 nM
[14]
  GI50: 1030 nM
  TGI: 2370 nM
[15]
  GI50: 1030 nM
  TGI: 9890 nM
[16]
  GI50: 139 nM
  TGI: 2850 nM
[17]
  GI50: 358 nM
  TGI: 2080 nM
[18]
  GI50: 1870 nM
  TGI: 13000 nM
[19]
  GI50: 1600 nM
  TGI: 5230 nM
[20]
  GI50: 542 nM
  TGI: 2030 nM
[21]
  GI50: 5220 nM
  TGI: 19100 nM
[22]
  GI50: 2520 nM
  TGI: 14700 nM
[23]
  GI50: 1530 nM
  TGI: 10100 nM
[24]
  GI50: 2970 nM
